# Measurements from patent US20250099420A1, “SMALL MOLECULE MODULATORS OF GPR139 COMPLEX” (University of Florida Research Foundation, Incorporated, priority 2022, published 2025).
# Where two headings read alike, the source gives them in different places.
# Key:
# parental HEK cells = test: HEK parental Agonist Counterscreen Assay (non-transfected cells); format: cell-based; details: for Averaged Max % Response (±St. Dev.): activity relative to known control
# Description: The high control for the agonist counterscreen was Forskolin not acetylcholine.
# GPR139 = target: T1, GPR139 (Homo sapiens, UniProt Q6DWJ6); test: GPR139 Agonist titration / agonist counterscreen assay (calcium detection, HEK-GPR139 cells); format: cell-based; design: expressed in transfected cells; host or cells: HEK Aequorin cells, Maxcyte transient transfection; details: GPR139 Agonist Activity; for EC50: read-out: EC50; for Averaged Max % Response (±St. Dev.): activity relative to known control
# T1 sequence (Q6DWJ6 1-353): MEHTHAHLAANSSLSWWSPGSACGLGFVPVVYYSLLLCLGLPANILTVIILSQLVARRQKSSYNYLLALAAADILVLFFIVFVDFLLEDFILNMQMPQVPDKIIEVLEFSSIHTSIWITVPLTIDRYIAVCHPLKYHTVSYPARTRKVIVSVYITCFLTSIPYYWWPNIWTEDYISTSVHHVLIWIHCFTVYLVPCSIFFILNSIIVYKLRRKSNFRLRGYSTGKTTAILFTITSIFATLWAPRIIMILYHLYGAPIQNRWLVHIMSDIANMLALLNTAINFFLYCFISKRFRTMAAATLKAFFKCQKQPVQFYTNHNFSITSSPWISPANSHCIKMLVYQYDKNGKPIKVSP
# Experimental: GPR activity was assessed using a calcium detection assay. […] Negative control samples were treated with DMSO. […] Intracellular calcium was measured using Calcium 5.
# [1] = Homo sapiens, HEK293, HEK Agonist Activity section of Table 4 (parental HEK counterscreen)
# [2] = Homo sapiens, HEK293, HEK Agonist Activity, parental non-transfected HEK cells
# [3] = values printed in E-notation without unit
# [4] = HEK Agonist Activity section of Table 4 (parental HEK counterscreen)
SMILES,Lipophilic Efficiency (logD) (parental HEK cells; HEK Agonist Activity section),Lipophilic Efficiency (logP) (parental HEK cells; HEK Agonist Activity section),Efficiency Ligand (GPR139),Hill Slope (GPR139),Lipophilic Efficiency (logD) (GPR139),Lipophilic Efficiency (logP) (GPR139),EC50 (GPR139; HEK-GPR139 cells) [nM],Averaged Max % Response (±St. Dev.) (GPR139) [%],Lipophilic Efficiency (logD) (parental HEK cells; HEK Agonist Activity),Lipophilic Efficiency (logP) (parental HEK cells; HEK Agonist Activity),Lipophilic Efficiency (logD) (GPR139; based on logD),Lipophilic Efficiency (logP) (GPR139; based on logP),Hill Slope (GPR139; fitted dose-response curve),Efficiency Ligand (GPR139; ligand efficiency),EC50 (GPR139; [3]) [nM],Averaged Max % Response (±St. Dev.) (parental HEK cells; HEK Agonist Activity section) [%],EC50 (parental HEK cells; [1]) [nM],Averaged Max % Response (±St. Dev.) (parental HEK cells; HEK Agonist Activity) [%],EC50 (parental HEK cells; [2]) [nM],EC50 (parental HEK cells; [4]) [nM]
Cc1ccc(C)c(C(=O)CCC(=O)NNC(=O)c2cc(C)oc2C)c1 [SR-01000069642],–,–,–,–,–,–,–,100.05 ± 4.70,2.45,2.45,4.99,4.99,0.80,0.41,43.1,–,–,8.55 ± 4.45,> 14800,–
O=C(c1ccccc1)C1CCCCC1S(=O)(=O)O (stereo not drawn) [SR-01000197834],4.95,2.58,–,–,–,–,–,95.96 ± 5.70,–,–,6.98,4.61,1.09,0.54,131,18.65 ± 10.85,> 14100,–,–,–
Cc1ccccc1SCC(=O)NNC(=O)c1ccc(Br)s1 [SR-01000069352],1.25,1.25,–,–,–,–,–,97.44 ± 1.25,–,–,3.03,3.02,1.19,0.44,248,11.25 ± 2.29,> 14600,–,–,–
O=C(CC(C(=O)N1CCc2ccccc21)n1ccnc1)N1CCCCCC1 (stereo not drawn) [SR-01000144627],3.15,3.09,–,–,–,–,–,93.44 ± 12.43,–,–,4.94,4.88,1.08,0.34,229,28.51 ± 2.67,> 14100,–,–,–
O=C(NCCn1ccc2ccccc21)c1cccc(Cl)c1 [SR-01000124131],1.08,1.08,0.42,0.85,2.55,2.55,472,93.55 ± 12.47,–,–,–,–,–,–,–,−0.13 ± 10.83,> 14100,–,–,–

# Second part, led by results:
Lipophilic Efficiency (logD) (parental HEK cells; HEK Agonist Activity section),Lipophilic Efficiency (logP) (parental HEK cells; HEK Agonist Activity section),Efficiency Ligand (GPR139),Hill Slope (GPR139),Lipophilic Efficiency (logD) (GPR139),Lipophilic Efficiency (logP) (GPR139),EC50 (GPR139; HEK-GPR139 cells) [nM],Averaged Max % Response (±St. Dev.) (GPR139) [%],Lipophilic Efficiency (logD) (parental HEK cells; HEK Agonist Activity),Lipophilic Efficiency (logP) (parental HEK cells; HEK Agonist Activity),Lipophilic Efficiency (logD) (GPR139; based on logD),Lipophilic Efficiency (logP) (GPR139; based on logP),Hill Slope (GPR139; fitted dose-response curve),Efficiency Ligand (GPR139; ligand efficiency),EC50 (GPR139; [3]) [nM],SMILES,Averaged Max % Response (±St. Dev.) (parental HEK cells; HEK Agonist Activity section) [%],EC50 (parental HEK cells; [1]) [nM],Averaged Max % Response (±St. Dev.) (parental HEK cells; HEK Agonist Activity) [%],EC50 (parental HEK cells; [2]) [nM],EC50 (parental HEK cells; [4]) [nM]
2.75,2.75,0.29,1.58,3.90,3.90,1000,78.64 ± 16.53,–,–,–,–,–,–,–,O=C(C1CC1)N1CCc2cc(S(=O)(=O)NCC3COc4ccccc4O3)ccc21 (stereo not drawn) [SR-01000126429],25.18 ± 6.22,> 14100,–,–,–
2.32,2.32,–,–,–,–,–,93.61 ± 11.95,–,–,4.21,4.21,1.06,0.34,184,COc1ccc(C(C)N2CC34C=CC(O3)C(C(=O)OCC(C)C)C4C2=O)cc1 (stereo not drawn) [SR-01000114500],4.75 ± 6.36,–,–,–,> 14100
1.96,1.94,–,–,–,–,–,102.46 ± 8.64,–,–,3.78,3.77,0.56,0.30,210,N#C/C(=C/c1ccc(CNS(=O)(=O)c2ccccc2)o1)C(=O)NCCc1ccccc1 [SR-01000318079],11.69 ± 6.13,–,–,–,> 14100
–,–,–,–,–,–,–,108.04 ± 6.43,1.38,1.37,4.08,4.08,0.77,0.39,27.4,O=C(COc1ccccc1Cl)NNC(=O)CSc1ccc2ccccc2c1 [SR-01000071098],–,–,24.54 ± 7.58,> 14100,–
